Read-outs that look alike come from different tables or passages of the source.
Key:
[1] = biological target: T1, E. coli RNA polymerase (Escherichia coli, UniProt P0A8T7+P0A8V2); assay: Inhibition of RNA polymerase, cell free transcription assay (3H-UTP incorporation); format: biochemical; conditions: 37° C., 15 minutes
T1 construct: purchased Epicentre Technology; Madison Wis
Experimental: The inhibition of RNA polymerase was determined in a cell free transcription assay performed in standard U-bottom 96-well plates. The [H^3]-UTP incorporation in RNA was measured in the material precipitated upon addition of trichloroacetic acid (TCA). The reaction mixture contained 50 mM Tris-HCl (pH8), 50 mM KCl, 10 mM MgCl2, 0.1 mM EDTA, 5 mM dithiothreitol (DTT), 10 μg/ml BSA, 20: g/ml calf thymus DNA, 1 mM ATP, 1 mM CTP, 1 mM GTP, 0.5 mCi ^3H-UTP and 0.5 U of E. coli RNA polymerase enzyme (Epicentre Technology; Madison Wis.). 5 μl of the tested solution were added to 45 μl of reaction mixture, incubated at 37° C. for 15 minutes and then quenched with 150 μl of ice-cold 10% (w/v) TCA. After 30 min in ice, the well content was collected on glass-fiber filters (Filtermat A, Wallac) using a 96 wells cell harvester (Wallac) and radioactivity was determined in a β-Plate scintillation counter (Wallac). Count per min (CPM) values are transformed in % of RNA polymerase inhibition by using the following formula:
% of RNA polymerase=100−[(CPM compound−CPM blank)/(CPM control−CPM blank)]*100
where: CPM compound is CPM in well with compound; CPM blank is CPM average in wells without enzyme template and CPM control is CPM average in wells without compound.

[2] = system: M. catarrhalis; assay: Activity of concentrated HPLC fractions of the complex against M. catarrhalis; format: cell-based, Moraxella catarrhalis; conditions: eluates of HPLC fractionation of the complex, concentrated under vacuum
[3] = Conversion of factors A2 and B2 into A1 and B1 in DMSO (NMR); format: physicochemical; conditions: room temperature
Excerpt: The GE23077 complex is constituted of two couples of isomers: factors A1, A2 and factors B1, B2. It was observed that the individual pure Factor A1 and Factor A2, when kept in water solution or in mixtures of water miscible solvents and water solutions, reach an equilibrium state between them. […] The equilibration rate was accelerated at acidic and basic pHs. […] Accordingly, if recorded after complete conversion, the spectra relating to factors A2 and B2 correspond to the ones of the factors A1 and B1, respectively.

T1 sequence (P0A8V2 whole entry): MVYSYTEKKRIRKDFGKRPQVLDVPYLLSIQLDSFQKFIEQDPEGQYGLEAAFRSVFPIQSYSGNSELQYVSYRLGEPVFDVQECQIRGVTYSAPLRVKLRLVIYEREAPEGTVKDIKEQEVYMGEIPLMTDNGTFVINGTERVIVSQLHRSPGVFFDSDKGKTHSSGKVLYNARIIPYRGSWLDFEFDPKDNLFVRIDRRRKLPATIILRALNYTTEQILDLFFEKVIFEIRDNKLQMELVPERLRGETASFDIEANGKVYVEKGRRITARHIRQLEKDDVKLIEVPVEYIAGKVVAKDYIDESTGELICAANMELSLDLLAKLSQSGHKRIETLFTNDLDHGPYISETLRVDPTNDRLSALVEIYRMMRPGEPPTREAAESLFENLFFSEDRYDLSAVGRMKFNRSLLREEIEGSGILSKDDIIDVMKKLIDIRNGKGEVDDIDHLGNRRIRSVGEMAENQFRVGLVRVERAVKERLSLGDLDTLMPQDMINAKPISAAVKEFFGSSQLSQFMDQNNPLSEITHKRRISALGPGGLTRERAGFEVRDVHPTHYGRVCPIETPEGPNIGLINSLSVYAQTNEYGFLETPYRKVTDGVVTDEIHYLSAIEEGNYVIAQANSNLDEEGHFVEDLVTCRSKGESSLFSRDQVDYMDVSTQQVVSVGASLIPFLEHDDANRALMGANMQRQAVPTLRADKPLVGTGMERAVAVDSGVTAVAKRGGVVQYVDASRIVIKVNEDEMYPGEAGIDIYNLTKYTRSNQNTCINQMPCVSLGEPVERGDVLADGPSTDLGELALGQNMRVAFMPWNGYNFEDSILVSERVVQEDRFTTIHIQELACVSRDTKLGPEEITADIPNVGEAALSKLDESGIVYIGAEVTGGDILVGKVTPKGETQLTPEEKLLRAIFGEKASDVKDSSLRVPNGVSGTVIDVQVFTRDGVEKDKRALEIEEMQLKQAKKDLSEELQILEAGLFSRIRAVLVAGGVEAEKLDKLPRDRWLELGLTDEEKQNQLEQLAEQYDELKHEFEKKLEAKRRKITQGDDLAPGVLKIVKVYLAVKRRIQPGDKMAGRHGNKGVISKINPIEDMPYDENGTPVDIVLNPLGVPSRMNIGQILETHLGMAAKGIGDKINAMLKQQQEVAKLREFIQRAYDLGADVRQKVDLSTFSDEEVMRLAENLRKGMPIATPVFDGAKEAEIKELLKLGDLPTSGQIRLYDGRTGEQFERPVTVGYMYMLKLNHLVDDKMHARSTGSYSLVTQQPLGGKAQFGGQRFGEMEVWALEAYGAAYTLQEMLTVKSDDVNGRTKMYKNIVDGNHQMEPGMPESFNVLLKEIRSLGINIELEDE
T1 sequence (P0A8T7 whole entry): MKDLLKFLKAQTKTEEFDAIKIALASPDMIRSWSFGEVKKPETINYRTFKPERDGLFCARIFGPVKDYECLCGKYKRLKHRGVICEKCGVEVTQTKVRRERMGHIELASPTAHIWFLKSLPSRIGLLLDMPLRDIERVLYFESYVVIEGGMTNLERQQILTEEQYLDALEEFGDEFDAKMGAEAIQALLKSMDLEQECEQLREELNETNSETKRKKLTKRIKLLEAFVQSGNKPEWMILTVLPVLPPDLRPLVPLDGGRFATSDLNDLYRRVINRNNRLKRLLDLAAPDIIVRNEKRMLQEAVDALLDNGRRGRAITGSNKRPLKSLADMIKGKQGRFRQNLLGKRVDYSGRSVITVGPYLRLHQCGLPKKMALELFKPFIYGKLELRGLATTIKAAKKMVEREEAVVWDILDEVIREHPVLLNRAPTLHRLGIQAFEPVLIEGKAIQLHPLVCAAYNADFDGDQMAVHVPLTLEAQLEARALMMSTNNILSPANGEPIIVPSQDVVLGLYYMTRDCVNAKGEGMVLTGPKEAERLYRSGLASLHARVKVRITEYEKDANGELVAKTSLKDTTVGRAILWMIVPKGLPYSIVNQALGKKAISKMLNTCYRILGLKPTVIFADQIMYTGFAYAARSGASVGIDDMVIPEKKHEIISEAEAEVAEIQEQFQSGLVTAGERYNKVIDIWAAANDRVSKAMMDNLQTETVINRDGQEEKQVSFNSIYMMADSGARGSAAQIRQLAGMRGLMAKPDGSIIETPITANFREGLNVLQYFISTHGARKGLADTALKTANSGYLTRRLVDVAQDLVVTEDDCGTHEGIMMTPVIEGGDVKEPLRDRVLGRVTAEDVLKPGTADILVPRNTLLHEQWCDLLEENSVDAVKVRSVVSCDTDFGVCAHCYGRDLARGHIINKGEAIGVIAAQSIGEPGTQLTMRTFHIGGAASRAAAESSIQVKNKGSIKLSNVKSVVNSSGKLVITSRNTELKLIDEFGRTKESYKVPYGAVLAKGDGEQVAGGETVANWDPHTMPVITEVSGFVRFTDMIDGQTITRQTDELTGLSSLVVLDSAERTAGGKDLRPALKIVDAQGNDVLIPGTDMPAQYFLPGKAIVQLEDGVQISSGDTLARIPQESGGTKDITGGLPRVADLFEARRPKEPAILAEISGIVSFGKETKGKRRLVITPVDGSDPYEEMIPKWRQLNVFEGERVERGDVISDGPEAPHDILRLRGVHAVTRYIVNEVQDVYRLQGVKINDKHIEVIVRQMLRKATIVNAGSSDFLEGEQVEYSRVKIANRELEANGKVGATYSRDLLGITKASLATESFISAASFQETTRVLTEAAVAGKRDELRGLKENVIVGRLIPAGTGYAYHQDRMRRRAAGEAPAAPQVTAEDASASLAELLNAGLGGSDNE
T1 sequence (P0A7Z4 whole entry partner): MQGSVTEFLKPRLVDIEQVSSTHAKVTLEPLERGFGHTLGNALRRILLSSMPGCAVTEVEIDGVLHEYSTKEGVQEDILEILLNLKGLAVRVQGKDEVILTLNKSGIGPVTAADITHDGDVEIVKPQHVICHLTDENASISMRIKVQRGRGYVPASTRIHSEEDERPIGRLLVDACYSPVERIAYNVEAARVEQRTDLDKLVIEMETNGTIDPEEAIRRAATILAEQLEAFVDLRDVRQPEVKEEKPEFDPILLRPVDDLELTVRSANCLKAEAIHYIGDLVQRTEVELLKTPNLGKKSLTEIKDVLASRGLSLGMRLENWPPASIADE
T1 sequence (P0A800 whole entry partner): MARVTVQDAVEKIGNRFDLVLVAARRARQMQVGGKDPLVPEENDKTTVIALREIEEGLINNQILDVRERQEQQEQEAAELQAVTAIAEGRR

CC=C(C)C(=O)NCC1NC(=O)C(C(=O)O)NC(=O)C(O)CNC(=O)C(C(C)O)NC(=O)C(C(O)C(O)C(N)=O)NC(=O)C(C(C)C)NC(=O)C(CO)NC1=O (single isomer, unassigned) [Factor A1]
IC50 ([1]; IC50 of E. coli RNA polymerase): 0.187 µM
Inhibition of M. catarrhalis by HPLC fractions containing the separated factors [2]: inhibited the test microorganism

CC=C(C)C(=O)NCC1NC(=O)C(C(=O)O)NC(=O)C(O)CNC(=O)C(C(C)O)NC(=O)C(C(O)C(O)C(N)=O)NC(=O)C(C(C)C)NC(=O)C(CO)NC1=O (single isomer, unassigned) [Factor A2]
IC50 ([1]; IC50 of E. coli RNA polymerase): 0.0435 µM
Inhibition of M. catarrhalis by HPLC fractions containing the separated factors [2]: inhibited the test microorganism
Time for full conversion into factor A1 / B1 [3]: 12 h

CC(C)CC(=O)NCC1NC(=O)C(C(=O)O)NC(=O)C(O)CNC(=O)C(C(C)O)NC(=O)C(C(O)C(O)C(N)=O)NC(=O)C(C(C)C)NC(=O)C(CO)NC1=O (single isomer, unassigned) [Factor B1]
IC50 ([1]; IC50 of E. coli RNA polymerase): 0.124 µM
Inhibition of M. catarrhalis by HPLC fractions containing the separated factors [2]: inhibited the test microorganism

CC(C)CC(=O)NCC1NC(=O)C(C(=O)O)NC(=O)C(O)CNC(=O)C(C(C)O)NC(=O)C(C(O)C(O)C(N)=O)NC(=O)C(C(C)C)NC(=O)C(CO)NC1=O (single isomer, unassigned) [Factor B2]
IC50 ([1]; read-out: IC50 of E. coli RNA polymerase (converted)): 0.0248 µM
Inhibition of M. catarrhalis by HPLC fractions containing the separated factors [2]: inhibited the test microorganism
Time for full conversion into factor A1 / B1 (in words) [3]: few minutes

— US6586393B2, “Antibiotics GE 23077, pharmaceutically acceptable salts and compositions, and use thereof” (priority 2000, dated 2003)
